Like-named read-outs stand apart in the source and are kept apart here.
Experiments:
Assay in all cases: cells
Format in all cases: cell-based
BxPC-3 = conditions: for MI%: BxPC-3, maximum inhibitory effect over concentration range; for CC50: Homo sapiens, BXPC-3, 72 h, read-out: LC50
Description: (§1) The assay was contracted and carried out by WuXi AppTec (Shanghai) Co., Ltd. The tumor cell lines CCRF-CEM, HL-60, KG-1, MOLT-4, K562, MV4-11, THP-1, HEL92.1.7, NCI-H929, RPMI-8226, Jurkat, Z138, RL, HS445, HepG2, MCF-7, Bx-PC-3, HT29, MIA PaCa-2, and SW620 were seeded at cell densities of […] 10^3 cells/well in a 96-well plate the day before drug incubation. Then, the plates were incubated for 72 h with the different concentrations of compound to be tested. After the incubation period, 50 μL of MTS was added and the tumor cells were incubated for 4 h at 37 °C. The data were read and collected by a Spectra Max 340 absorbance microplate reader. The compounds were tested in duplicate with nine serial concentrations (3.16-fold titrations with 198 μM as the highest concentration), and the data were analyzed by XLfit software.

K562 = conditions: Homo sapiens; for Emax: read-out: MI%; for CC50: read-out: LC50
Description: as §1

HS445 = conditions: for MI%: HS445, maximum inhibitory effect over concentration range; for CC50: Homo sapiens, Hs 445, 72 h, read-out: LC50
Description: as §1

MCF-7 = conditions: Homo sapiens, MCF7, 72 h; for CC50: read-out: LC50; for Emax: read-out: MI%
Description: as §1

RL = conditions: for CC50: Homo sapiens, 72 h, read-out: LC50; for MI%: maximum inhibitory effect over concentration range
Description: as §1

MIA PaCa-2 = conditions: for CC50: Homo sapiens, MIA PaCa-2, 72 h, read-out: LC50; for MI%: MIA PaCa-2, maximum inhibitory effect over concentration range
Description: as §1

CCRF-CEM = conditions: Homo sapiens, 72 h; for Emax: read-out: MI%; for CC50: read-out: LC50
Description: as §1

KG-1 = conditions: Homo sapiens, KG-1, 72 h, read-out: LC50
Description: as §1

RPMI-8226 = conditions: for CC50: Homo sapiens, RPMI-8226, 72 h, read-out: LC50; for MI%: RPMI-8226, maximum inhibitory effect over concentration range
Description: as §1

HL-60 = conditions: Homo sapiens; for Emax: read-out: MI%; for CC50: read-out: LC50
Description: as §1

Z138 = conditions: for CC50: Homo sapiens, Z-138, 72 h, read-out: LC50; for MI%: Z138, maximum inhibitory effect over concentration range
Description: as §1

THP-1 = conditions: for CC50: Homo sapiens, THP-1, 72 h, read-out: LC50; for MI%: THP-1, maximum inhibitory effect over concentration range
Description: as §1

SW620 = conditions: for CC50: Homo sapiens, SW-620, 72 h, read-out: LC50; for MI%: SW620, maximum inhibitory effect over concentration range
Description: as §1

MV4-11 = conditions: for CC50: Homo sapiens, MV4-11, 72 h, read-out: LC50; for MI%: MV4-11, maximum inhibitory effect over concentration range
Description: as §1

HepG2 = conditions: Homo sapiens; for Emax: read-out: MI%; for CC50: read-out: LC50
Description: as §1

HEL92.1.7 = conditions: for MI%: HEL92.1.7, maximum inhibitory effect over concentration range; for CC50: Homo sapiens, HEL 92.1.7, 72 h, read-out: LC50
Description: as §1

MOLT-4 = conditions: Homo sapiens; for Emax: read-out: MI%; for CC50: read-out: LC50
Description: as §1

HT29 = conditions: for MI%: HT29, maximum inhibitory effect over concentration range; for CC50: Homo sapiens, HT-29, 72 h, read-out: lC50
Description: as §1

NCI-H929 = conditions: for CC50: Homo sapiens, NCI-H929, 72 h, read-out: LC50; for MI%: NCI-H929, maximum inhibitory effect over concentration range
Description: as §1

Jurkat = conditions: for CC50: Homo sapiens, 72 h, read-out: LC50; for CC50 / MI%: Jurkat; for MI%: maximum inhibitory effect over concentration range
Description: as §1

Row | Compound | MI% (BxPC-3) | CC50 (BxPC-3) | CC50 (K562; K562, 72 h) | MI% (HS445) | CC50 (HS445) | CC50 (MCF-7) | CC50 (RL) | MI% (RL) | CC50 (MIA PaCa-2) | MI% (MIA PaCa-2) | CC50 (CCRF-CEM) | CC50 (KG-1) | CC50 (RPMI-8226) | MI% (RPMI-8226) | CC50 (HL-60; HL-60, 72 h) | CC50 (Z138) | MI% (Z138) | CC50 (THP-1) | MI% (THP-1) | CC50 (SW620) | also measured
1 | Nc1ncnc2c1ncn2[C@@H]1O[C@H](CO)C[C@H]1O [3′-dA, 3′-Deoxyadenosine, reference compound] | 22% | > 198 µM | 59.3 µM | 2% | > 198 µM | 34.2 µM | > 198 µM | 17% | > 198 µM | 35% | > 198 µM | 70.8 µM | > 198 µM | 1% | 76.8 µM | 12.2 µM | 95% | > 198 µM | –3% | > 198 µM | Emax (K562; 72 h, K562, maximum inhibitory effect over concentration range): 88%; Emax (MCF-7; MCF-7, maximum inhibitory effect over concentration range): 78%; Emax (CCRF-CEM; maximum inhibitory effect over concentration range): 12%; Emax (HL-60; 72 h, HL-60, maximum inhibitory effect over concentration range): 88%; MI% (SW620): 10%; CC50 (MV4-11): > 198 µM; MI% (MV4-11): 1%; Emax (HepG2; 72 h, HepG2, maximum inhibitory effect over concentration range): 66%; CC50 (HepG2; HepG2, 72 h): 142 µM; MI% (HEL92.1.7): 88%; CC50 (HEL92.1.7): 68.9 µM; Emax (MOLT-4; 72 h, MOLT-4, maximum inhibitory effect over concentration range): 52%; CC50 (MOLT-4; MOLT-4, 72 h): 152 µM; MI% (HT29): 44%; CC50 (HT29): > 198 µM; CC50 (NCI-H929): > 198 µM; MI% (NCI-H929): 24%; CC50 (Jurkat): > 198 µM; MI% (Jurkat): 20%
2 | C[C@H](NP(=O)(OC[C@@H]1C[C@@H](O)[C@H](n2cnc3c(N)ncnc32)O1)Oc1ccccc1)C(=O)OCc1ccccc1 (stereo partly drawn) [Compound 7a, (Rp)- and (Sp)-3′-Deoxyadenosine 5′-O-phenyl-(benzoxy-L-alaninyl)-phosphate] | 81% | 23.6 µM | 6.1 µM | 98% | 30.5 µM | 3.07 µM | 3 µM | 93% | 6.85 µM | 96% | 2.36 µM | 17.4 µM | 14.7 µM | 96% | 17.8 µM | 27 µM | 95% | 65.5 µM | 74% | 24.9 µM | Emax (K562; K562, 72 h): 92%; Emax (MCF-7): 94%; Emax (CCRF-CEM): 100%; Emax (HL-60; HL-60, 72 h): 97%; MI% (SW620): 85%; CC50 (MV4-11): 2.1 µM; MI% (MV4-11): 99%; CC50 (HepG2; HepG2, 72 h): 18.7 µM; Emax (HepG2; HepG2, 72 h): 76%; MI% (HEL92.1.7): 100%; CC50 (HEL92.1.7): 8.07 µM; CC50 (MOLT-4; MOLT-4, 72 h): 0.51 µM; Emax (MOLT-4; MOLT-4, 72 h): 98%; MI% (HT29): 93%; CC50 (HT29): 13.4 µM; CC50 (NCI-H929): 6.07 µM; MI% (NCI-H929): 100%; CC50 (Jurkat): 1.44 µM; fold more active than 3′-dA (Jurkat; Jurkat cell line, from LC50): approximately 200 fold; MI% (Jurkat): 100%
3 | CCOC(=O)CCc1ccccc1OP(=O)(N[C@@H](C)C(=O)OCc1ccccc1)OC[C@@H]1C[C@@H](O)[C@H](n2cnc3c(N)ncnc32)O1 (stereo partly shown) [Compound 7e] | 78% | 60.9 µM | 175 µM | 92% | 42.7 µM | 15.8 µM | 7.26 µM | 90% | 12.1 µM | 101% | 40.1 µM | 102 µM | 31.1 µM | 106% | 78.5 µM | 68.2 µM | 76% | 36.7 µM | 100% | 43.4 µM | Emax (K562; K562, 72 h): 61%; Emax (MCF-7): 78%; Emax (CCRF-CEM): 90%; Emax (HL-60; HL-60, 72 h): 74%; MI% (SW620): 90%; CC50 (MV4-11): 3.27 µM; MI% (MV4-11): 100%; CC50 (HepG2; HepG2, 72 h): 96.1 µM; Emax (HepG2; HepG2, 72 h): 59%; MI% (HEL92.1.7): 99%; CC50 (HEL92.1.7): 14.5 µM; CC50 (MOLT-4; MOLT-4, 72 h): 12.6 µM; Emax (MOLT-4; MOLT-4, 72 h): 97%; MI% (HT29): 89%; CC50 (HT29): 25.2 µM; CC50 (NCI-H929): 7.57 µM; MI% (NCI-H929): 100%; CC50 (Jurkat): 4.75 µM; MI% (Jurkat): 100%
